Earlier results as cited in patent US20190201417A1, “TOPICAL STEROID THERAPY FOR MUCOSAL AND DERMATOLOGICAL INFLAMMATORY DISEASE” (CINRX PHARMA, LLC, priority 2016, published 2019).
Like-named read-outs stand apart in the source and are kept apart here.

Assays:
Caco-2 cell monolayers = conditions: coadministration with chitosan glutamate
[1] = rats, nasal application with chitosan glutamate
[2] = sheep, nasal application with chitosan glutamate

## 9-desglycinamide-8-arginine vasopressin [DGAVP]
Caco-2 cell monolayers
  transport of the peptide drug: increased markedly

## CCNC(=O)[C@@H]1CCCN1C(=O)[C@H](CCCNC(=N)N)NC(=O)[C@H](CC(C)C)NC(=O)[C@@H](COC(C)(C)C)NC(=O)[C@H](Cc1ccc(O)cc1)NC(=O)[C@H](CO)NC(=O)[C@H](Cc1c[nH]c2ccccc12)NC(=O)[C@H](Cc1cnc[nH]1)NC(=O)[C@@H]1CCC(=O)N1 [buserelin]
Intraduodenal application with chitosan hydrochloride in a gel formulation
  absolute bioavailability of buserelin: 5.1±1.5%
Intraduodenal application, baseline without chitosan hydrochloride
  absolute bioavailability of buserelin: 0.1±0.1%

## insulin
[1]
  blood glucose levels: significant reduction
[2]
  blood glucose levels: significant reduction
